Tests used:
Test in all cases: Kinase selectivity, DiscoverX scanMAX Kinase assay panel (% control)
Type in all cases: binding
[1] = molecular target: T1, kinases of the scanMAX Kinase assay panel (Homo sapiens, UniProt Q07912); settings: kinase TNK2; 1 uM in DMSO
T1 construct: purchased DiscoverX Co. (contract measurement) scanMAX Kinase assay panel
Method: (§1) The following experiment was performed to evaluate the activity of the compounds of the present invention to inhibit many enzymes.
(§2) Particularly, the compounds of Examples 8, 64 and 104 were selected among all of those compounds of the invention. DiscoverX Co. was asked to measure the enzyme (kinase) selectivity, and the experiment was performed using scanMAX™ Kinase assay panel.
(§3) Wherein, the concentration of the drug treated to each enzyme was 1 uM in DMSO and the control percentage (% control) was determined by the following Equation 1. (example compound−positive control)/(negative control−positive control)×100 [Equation 1]
(§4) Herein, the positive control indicates the compound showing the % control of 0%, and the negative control indicates DMSO showing the % control of 100%. The enzyme selectivity in the present invention is defined as follows: When the % control for each enzyme is less than 35% (<35%), it is judged that the compound has the activity to the corresponding enzyme.

[2] = molecular target: T2, kinases of the scanMAX Kinase assay panel (Homo sapiens, UniProt P49137); settings: MAPKAPK2; 1 uM
T2 construct: purchased DiscoverX Co. (contract measurement) scanMAX Kinase assay panel
T2 sequence (P49137 whole entry): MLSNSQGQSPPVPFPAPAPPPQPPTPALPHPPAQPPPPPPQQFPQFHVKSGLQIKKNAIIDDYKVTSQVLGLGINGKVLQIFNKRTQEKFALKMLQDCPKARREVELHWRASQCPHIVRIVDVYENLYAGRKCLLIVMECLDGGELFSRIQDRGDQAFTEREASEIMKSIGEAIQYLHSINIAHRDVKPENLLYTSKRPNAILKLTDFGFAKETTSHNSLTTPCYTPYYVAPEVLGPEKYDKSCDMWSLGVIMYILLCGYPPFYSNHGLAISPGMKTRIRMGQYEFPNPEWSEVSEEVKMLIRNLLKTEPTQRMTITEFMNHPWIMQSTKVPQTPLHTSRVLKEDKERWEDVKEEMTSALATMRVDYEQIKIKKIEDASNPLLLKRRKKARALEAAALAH
Method: as §1, §2, §3, §4

[3] = molecular target: T3, kinases of the scanMAX Kinase assay panel (Homo sapiens, UniProt Q8WXR4); settings: MYO3B; 1 uM
T3 construct: purchased DiscoverX Co. (contract measurement) scanMAX Kinase assay panel
T3 sequence (Q8WXR4 1-1341): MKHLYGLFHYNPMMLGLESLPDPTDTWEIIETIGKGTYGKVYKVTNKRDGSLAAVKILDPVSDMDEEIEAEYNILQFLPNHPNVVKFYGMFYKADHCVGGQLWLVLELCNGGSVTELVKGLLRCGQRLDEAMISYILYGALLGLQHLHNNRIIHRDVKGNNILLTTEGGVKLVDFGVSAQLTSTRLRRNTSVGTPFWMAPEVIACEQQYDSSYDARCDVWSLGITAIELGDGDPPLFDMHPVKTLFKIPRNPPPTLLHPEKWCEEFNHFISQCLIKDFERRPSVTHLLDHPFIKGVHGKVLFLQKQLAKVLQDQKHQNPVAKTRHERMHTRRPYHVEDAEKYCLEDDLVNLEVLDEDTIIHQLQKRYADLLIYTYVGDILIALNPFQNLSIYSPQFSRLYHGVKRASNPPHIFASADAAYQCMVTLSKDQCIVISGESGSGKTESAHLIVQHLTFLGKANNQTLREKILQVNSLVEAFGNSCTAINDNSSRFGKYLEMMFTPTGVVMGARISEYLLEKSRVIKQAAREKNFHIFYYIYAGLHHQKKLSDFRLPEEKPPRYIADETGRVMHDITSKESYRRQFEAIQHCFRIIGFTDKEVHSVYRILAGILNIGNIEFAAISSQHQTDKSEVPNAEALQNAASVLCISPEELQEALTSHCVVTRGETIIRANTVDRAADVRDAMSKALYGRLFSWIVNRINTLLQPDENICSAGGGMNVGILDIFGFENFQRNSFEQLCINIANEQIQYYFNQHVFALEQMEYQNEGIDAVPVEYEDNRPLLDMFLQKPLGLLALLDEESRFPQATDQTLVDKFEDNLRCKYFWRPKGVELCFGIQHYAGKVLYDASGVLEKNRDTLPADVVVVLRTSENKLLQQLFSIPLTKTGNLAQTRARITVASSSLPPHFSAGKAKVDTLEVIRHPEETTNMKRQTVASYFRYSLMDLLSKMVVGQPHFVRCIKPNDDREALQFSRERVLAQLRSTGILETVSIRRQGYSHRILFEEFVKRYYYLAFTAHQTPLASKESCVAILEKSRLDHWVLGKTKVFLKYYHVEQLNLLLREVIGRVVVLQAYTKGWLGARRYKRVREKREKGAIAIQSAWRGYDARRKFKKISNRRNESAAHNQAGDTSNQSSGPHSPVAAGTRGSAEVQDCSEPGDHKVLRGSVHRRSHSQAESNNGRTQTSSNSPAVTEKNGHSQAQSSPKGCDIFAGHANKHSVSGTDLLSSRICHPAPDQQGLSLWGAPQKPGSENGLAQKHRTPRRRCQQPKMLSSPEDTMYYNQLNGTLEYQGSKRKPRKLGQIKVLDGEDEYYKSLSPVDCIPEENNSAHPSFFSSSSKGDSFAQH
Method: as §1, §2, §3, §4

[4] = molecular target: T4, kinases of the scanMAX Kinase assay panel (Homo sapiens, UniProt O43353); settings: kinase RIPK2; 1 uM in DMSO
T4 construct: purchased DiscoverX Co. (contract measurement) scanMAX Kinase assay panel
Method: as §1, §2, §3, §4

[5] = molecular target: T5, kinases of the scanMAX Kinase assay panel (Homo sapiens, UniProt Q14289); settings: PYK2; 1 uM
T5 construct: purchased DiscoverX Co. (contract measurement) scanMAX Kinase assay panel
T5 sequence (Q14289 whole entry): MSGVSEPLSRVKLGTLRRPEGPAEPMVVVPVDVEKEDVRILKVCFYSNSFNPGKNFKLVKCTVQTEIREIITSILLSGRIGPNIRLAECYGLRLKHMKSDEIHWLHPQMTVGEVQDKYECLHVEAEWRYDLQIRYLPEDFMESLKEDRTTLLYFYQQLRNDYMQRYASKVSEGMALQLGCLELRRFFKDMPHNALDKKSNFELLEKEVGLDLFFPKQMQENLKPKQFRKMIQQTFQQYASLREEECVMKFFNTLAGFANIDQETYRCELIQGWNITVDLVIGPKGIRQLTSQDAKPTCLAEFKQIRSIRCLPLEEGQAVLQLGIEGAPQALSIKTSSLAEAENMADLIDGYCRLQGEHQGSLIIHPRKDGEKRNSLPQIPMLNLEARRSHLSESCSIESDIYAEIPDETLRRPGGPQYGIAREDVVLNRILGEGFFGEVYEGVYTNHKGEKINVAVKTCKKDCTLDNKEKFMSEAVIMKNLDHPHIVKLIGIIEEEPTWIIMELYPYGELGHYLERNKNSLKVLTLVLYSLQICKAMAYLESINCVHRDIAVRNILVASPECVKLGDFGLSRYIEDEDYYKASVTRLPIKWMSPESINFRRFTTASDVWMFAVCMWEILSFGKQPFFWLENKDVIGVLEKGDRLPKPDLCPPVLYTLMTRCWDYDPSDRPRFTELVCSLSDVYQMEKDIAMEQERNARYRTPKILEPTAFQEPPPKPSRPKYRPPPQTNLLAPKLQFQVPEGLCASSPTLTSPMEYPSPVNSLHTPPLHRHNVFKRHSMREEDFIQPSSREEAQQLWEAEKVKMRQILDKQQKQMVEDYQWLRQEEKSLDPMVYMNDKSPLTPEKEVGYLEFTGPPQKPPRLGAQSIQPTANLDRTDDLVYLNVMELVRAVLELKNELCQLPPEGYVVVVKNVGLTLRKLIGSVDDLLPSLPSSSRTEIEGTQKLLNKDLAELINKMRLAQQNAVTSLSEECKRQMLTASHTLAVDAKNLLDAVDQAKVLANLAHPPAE
Method: as §1, §2, §3, §4

[6] = molecular target: T6, kinases of the scanMAX Kinase assay panel (Homo sapiens, UniProt P31152); settings: ERK4; 1 uM
T6 construct: purchased DiscoverX Co. (contract measurement) scanMAX Kinase assay panel
T6 sequence (P31152 whole entry): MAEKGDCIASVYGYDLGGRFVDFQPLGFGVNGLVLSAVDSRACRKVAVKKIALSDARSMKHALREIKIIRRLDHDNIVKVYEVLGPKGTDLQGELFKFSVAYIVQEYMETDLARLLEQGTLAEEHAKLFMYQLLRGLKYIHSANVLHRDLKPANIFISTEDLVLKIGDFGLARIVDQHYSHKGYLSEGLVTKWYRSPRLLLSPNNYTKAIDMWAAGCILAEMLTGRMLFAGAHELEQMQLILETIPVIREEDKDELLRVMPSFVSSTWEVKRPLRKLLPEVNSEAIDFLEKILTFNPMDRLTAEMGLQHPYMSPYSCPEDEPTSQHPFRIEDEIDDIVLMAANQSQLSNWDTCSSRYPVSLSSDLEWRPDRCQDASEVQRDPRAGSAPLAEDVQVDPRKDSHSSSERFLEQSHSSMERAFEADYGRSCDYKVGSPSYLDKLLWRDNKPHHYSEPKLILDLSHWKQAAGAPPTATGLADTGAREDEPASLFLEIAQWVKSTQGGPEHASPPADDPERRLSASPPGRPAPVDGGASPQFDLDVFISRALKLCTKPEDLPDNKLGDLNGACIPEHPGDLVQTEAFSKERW
Method: as §1, §2, §3, §4

[7] = molecular target: T7, kinases of the scanMAX Kinase assay panel (Homo sapiens, UniProt P53779); settings: JNK3; 1 uM
T7 construct: purchased DiscoverX Co. (contract measurement) scanMAX Kinase assay panel
T7 sequence (P53779 whole entry): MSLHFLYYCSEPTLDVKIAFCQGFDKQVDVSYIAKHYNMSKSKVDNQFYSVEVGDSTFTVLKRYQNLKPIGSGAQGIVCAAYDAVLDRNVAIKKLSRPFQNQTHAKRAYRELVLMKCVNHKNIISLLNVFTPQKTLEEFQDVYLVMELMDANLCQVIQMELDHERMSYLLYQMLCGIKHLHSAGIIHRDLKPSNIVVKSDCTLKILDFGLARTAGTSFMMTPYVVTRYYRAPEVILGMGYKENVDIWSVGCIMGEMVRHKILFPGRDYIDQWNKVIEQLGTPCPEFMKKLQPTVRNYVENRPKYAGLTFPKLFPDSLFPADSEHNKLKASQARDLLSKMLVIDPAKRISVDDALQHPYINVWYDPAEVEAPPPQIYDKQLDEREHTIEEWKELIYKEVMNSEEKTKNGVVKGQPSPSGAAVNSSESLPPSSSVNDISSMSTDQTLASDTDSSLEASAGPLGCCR
Method: as §1, §2, §3, §4

[8] = molecular target: T8, kinases of the scanMAX Kinase assay panel (Homo sapiens, UniProt Q13705); settings: ACVR2B; 1 uM
T8 construct: purchased DiscoverX Co. (contract measurement) scanMAX Kinase assay panel
Method: as §1, §2, §3, §4

[9] = molecular target: T9, kinases of the scanMAX Kinase assay panel (Homo sapiens, UniProt Q9Y2H1); settings: NDR2; 1 uM
T9 construct: purchased DiscoverX Co. (contract measurement) scanMAX Kinase assay panel
T9 sequence (Q9Y2H1 whole entry): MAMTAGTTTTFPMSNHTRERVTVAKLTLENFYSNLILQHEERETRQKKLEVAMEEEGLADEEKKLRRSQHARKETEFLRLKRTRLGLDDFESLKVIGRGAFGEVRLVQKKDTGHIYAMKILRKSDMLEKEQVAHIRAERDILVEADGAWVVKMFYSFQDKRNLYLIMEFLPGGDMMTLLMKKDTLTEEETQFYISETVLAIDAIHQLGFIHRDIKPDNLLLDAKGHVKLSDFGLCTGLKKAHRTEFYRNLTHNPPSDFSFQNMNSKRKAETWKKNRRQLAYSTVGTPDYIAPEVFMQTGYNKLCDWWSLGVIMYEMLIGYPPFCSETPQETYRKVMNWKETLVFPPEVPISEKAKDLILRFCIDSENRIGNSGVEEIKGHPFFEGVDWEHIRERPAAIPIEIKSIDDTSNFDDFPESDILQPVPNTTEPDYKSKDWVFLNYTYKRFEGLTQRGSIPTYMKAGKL
Method: as §1, §2, §3, §4

[10] = molecular target: T10, kinases of the scanMAX Kinase assay panel (Homo sapiens, UniProt P30291); settings: kinase WEE1; 1 uM in DMSO
T10 construct: purchased DiscoverX Co. (contract measurement) scanMAX Kinase assay panel
T10 sequence (P30291 whole entry): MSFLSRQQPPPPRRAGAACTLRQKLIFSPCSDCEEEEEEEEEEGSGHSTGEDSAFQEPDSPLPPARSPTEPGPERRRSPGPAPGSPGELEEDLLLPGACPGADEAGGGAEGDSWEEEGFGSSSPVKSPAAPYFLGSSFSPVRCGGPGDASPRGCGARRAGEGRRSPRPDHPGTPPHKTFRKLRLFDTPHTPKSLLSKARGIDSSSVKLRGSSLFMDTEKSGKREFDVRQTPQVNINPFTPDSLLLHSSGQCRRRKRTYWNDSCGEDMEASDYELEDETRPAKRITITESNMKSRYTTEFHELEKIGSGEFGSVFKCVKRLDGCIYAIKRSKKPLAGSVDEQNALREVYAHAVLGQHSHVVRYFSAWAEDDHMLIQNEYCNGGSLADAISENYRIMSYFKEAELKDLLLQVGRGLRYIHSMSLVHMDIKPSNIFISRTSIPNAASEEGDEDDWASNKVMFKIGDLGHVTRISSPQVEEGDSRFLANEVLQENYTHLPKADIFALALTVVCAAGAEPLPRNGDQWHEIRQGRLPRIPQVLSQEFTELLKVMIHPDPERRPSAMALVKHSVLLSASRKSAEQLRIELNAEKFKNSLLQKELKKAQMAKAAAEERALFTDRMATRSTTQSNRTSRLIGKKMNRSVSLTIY
Method: as §1, §2, §3, §4

T1 sequence (Q07912 whole entry): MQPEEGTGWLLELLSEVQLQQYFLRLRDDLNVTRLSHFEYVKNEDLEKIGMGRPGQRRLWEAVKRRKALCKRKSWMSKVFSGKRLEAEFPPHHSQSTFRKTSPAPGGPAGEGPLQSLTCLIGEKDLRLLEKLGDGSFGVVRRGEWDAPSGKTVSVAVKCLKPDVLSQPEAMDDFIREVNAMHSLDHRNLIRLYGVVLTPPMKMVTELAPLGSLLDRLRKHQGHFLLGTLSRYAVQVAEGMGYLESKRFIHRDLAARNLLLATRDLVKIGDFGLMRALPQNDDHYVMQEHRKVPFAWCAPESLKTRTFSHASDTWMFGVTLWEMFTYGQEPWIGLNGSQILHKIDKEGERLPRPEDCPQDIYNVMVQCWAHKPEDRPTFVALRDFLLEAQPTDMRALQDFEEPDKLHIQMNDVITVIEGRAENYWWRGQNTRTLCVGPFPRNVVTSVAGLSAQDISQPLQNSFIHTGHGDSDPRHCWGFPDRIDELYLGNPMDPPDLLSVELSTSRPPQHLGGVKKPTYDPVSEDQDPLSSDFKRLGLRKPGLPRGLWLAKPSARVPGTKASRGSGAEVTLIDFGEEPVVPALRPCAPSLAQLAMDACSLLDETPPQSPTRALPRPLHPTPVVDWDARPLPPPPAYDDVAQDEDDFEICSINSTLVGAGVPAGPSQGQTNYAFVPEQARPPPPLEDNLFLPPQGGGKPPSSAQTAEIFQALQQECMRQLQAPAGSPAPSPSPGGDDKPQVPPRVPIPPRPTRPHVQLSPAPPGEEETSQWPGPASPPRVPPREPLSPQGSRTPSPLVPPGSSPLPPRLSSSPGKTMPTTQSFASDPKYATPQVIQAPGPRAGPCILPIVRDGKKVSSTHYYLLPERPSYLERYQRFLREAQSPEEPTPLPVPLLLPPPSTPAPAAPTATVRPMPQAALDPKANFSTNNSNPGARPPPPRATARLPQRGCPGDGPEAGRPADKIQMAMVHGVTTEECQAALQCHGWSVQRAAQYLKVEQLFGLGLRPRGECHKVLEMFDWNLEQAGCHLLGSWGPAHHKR

SMILES	remaining binding at 1 µM [1]	remaining binding at 1 µM [2]	remaining binding at 1 µM [3]	remaining binding at 1 µM [4]	remaining binding at 1 µM [5]	remaining binding at 1 µM [6]	remaining binding at 1 µM [7]	remaining binding at 1 µM [8]	remaining binding at 1 µM [9]	remaining binding at 1 µM [10]
CNc1nc(Nc2ccc(C(=O)N3CCOCC3)cc2OC)nc2[nH]cc(C#N)c12 [Example 1, 2-((2-methoxy-4-(morpholine-4-carbonyl)phenyl)amino)-4-(methylamino)-7H-pyrrolo[2,3-d]pyrimidine-5-carbonitrile]	82%	4.6%	84%	100%	25%	95%	0%	100%	98%	78%
CC1(Nc2nc(Nc3cnn([C@H]4CCN(C5COC5)C[C@@H]4F)c3Cl)nc3[nH]cc(C#N)c23)CC1 [Example 52, 2-((5-chloro-1-((3S,4S)-3-fluoro-1-(oxetane-3-yl)piperidine-4-yl)-1H-pyrazole-4-yl)amino)((1-methylcyclopropyl)amino)-7H-pyrrolo[2,3-d]pyrimidine-5-carbonitrile]	0.9%	70%	10%	61%	1.2%	100%	0%	85%	31%	100%
CCNc1nc(Nc2ccc(C(=O)N3CCC(N4CCOCC4)CC3)cc2OC)nc2[nH]cc(C(F)(F)F)c12 [Example 104, (4-((4-(ethylamino)-5-(trifluoromethyl)-7H-pyrrolo[2,3-d]pyrimidine-2-yl)amino)-3-methoxyphenyl)(4-morpholinopiperidine-1-yl)methanone]	31%	24%	19%	100%	2.8%	92%	18%	100%	100%	100%
